The values that follow come from patent publication US8158158B2, “Composite biocidal particles” (Arch Chemicals, Inc., priority 1998, dated 2012).

For data set [1] the following is noted: cited from earlier work; for solubility: background statement.
The next data set deals with hard and soft fouling. As to the kind of experiment: Antifouling efficacy of paint on fiberglass panels submerged in seawater. It counts as in vivo. The note with it: single biocide, explanatory statement. The method, then: The antifouling efficacy of the composition of Example 1 was evaluated by mixing […] of it into 90 grams of a paint base. The commercial paint comprised:
This paint was painted onto fiberglass panels (8″×10″) and (12″×6″), which were then submerged in seawater for eight months (and running) in Miami, Fla.

Read-outs that look alike come from different tables or passages of the source.

Regarding `[Na+].[O-][n+]1ccccc1[S-]` [sodium salt of pyrithione, sodium pyrithione], the water solubility entry in data set [1] (water) is “about 53 % by weight”.
For the compound `On1ccccc1=S.On1ccccc1=S.[Cu]` [Copper pyrithione, copper pyrithione], the solubility result in data set [1] was “about 1 ppm”. Also, the water solubility result in data set [1] (in seawater) is listed as “less than 1 ppm”. In the data set with hard and soft fouling, the efficacy against algae result is reported as “most effective against algae”.
On to zinc pyrithione, for which, in data set [1], the solubility is reported as 6-10 ppm. The water solubility in data set [1] (water) was 6-10 ppm.
`[Cu].[O]=[Cu]` [cuprous oxide]: in the data set with hard and soft fouling, the efficacy against algae result was “relatively ineffective against algae” and the “resistance to barnacle formation” value was “strongly resisting barnacle formation”.
